In the supplement of paper PMC4862054:

Assays:
Details in all cases: incubation time: 72 h
SK-BR-3 = experiment: drug sensitivity score (DSS), CellTiter-Blue viability (DSS (AUC-based score)); higher = stronger viability inhibition; extreme values may be limits of the assay
Method: (§1)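 DSRT with the CellTiter-Blue (resazurin reduction) viability readout, fluorescence 560/590 nm, 72 h incubation. Plates were normalised to DMSO and benzethonium chloride controls. DSS is computed from the area under the fitted dose-response curve (5 or 9 concentrations).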

HCC1937 = experiment: as above
Method: as §1

MDA-MB-231 [1] = experiment: as above
Method: as §1

BT-549 = experiment: as above
Method: as §1

HCC1143 = experiment: as above
Method: as §1

CAL-148 = experiment: as above
Method: as §1

CAL-85-1 [2] = experiment: as above
Method: as §1

MDA-MB-453 [3] = experiment: as above
Method: as §1

DU-4475 = experiment: as above
Method: as §1

HDQ-P1 [4] = experiment: as above
Method: as §1

MFM-223 = experiment: as above
Method: as §1

MDA-MB-436 [5] = experiment: as above
Method: as §1

MDA-MB-468 [6] = experiment: as above
Method: as §1

CAL-120 [7] = experiment: as above
Method: as §1

Hs578T [8] = experiment: as above
Method: as §1

HCC1599 = experiment: as above
Method: as §1

BT-474 = experiment: as above
Method: as §1

CAL-51 = experiment: as above
Method: as §1

MDA-MB-231 [9] = experiment: drug sensitivity score (DSS), CellTox Green (DSS (AUC-based score)); higher = stronger drug effect (viability inhibition or cytotoxicity); extreme values may be limits of the assay
How it was run: (§2)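 For 72 h, breast cancer cell lines seeded at 20 µl suspension per well in 384-well plates were incubated with compound at 5 concentrations in 10-fold steps spanning a 10,000-fold range that differed by compound. The first reading was CellTox Green fluorescence at 485/520 nm, and the second was CellTiter-Glo luminescence after 10 min at room temperature. Both were normalised per plate to 0.1 % DMSO and a positive kill control, and the drug sensitivity score was obtained from the area under the fitted dose-response curve.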

CAL-85-1 [10] = experiment: as above
How it was run: as §2

MDA-MB-453 [11] = experiment: as above
How it was run: as §2

HDQ-P1 [12] = experiment: as above
How it was run: as §2

MDA-MB-436 [13] = experiment: as above
How it was run: as §2

MDA-MB-468 [14] = experiment: as above
How it was run: as §2

CAL-120 [15] = experiment: as above
How it was run: as §2

Hs578T [16] = experiment: as above
How it was run: as §2

Compound `CCNC(=O)c1noc(-c2cc(C(C)C)c(O)cc2O)c1-c1ccc(CN2CCOCC2)cc1` [NVP-AUY922] has a drug sensitivity score (SK-BR-3) of 22.8, a drug sensitivity score (HCC1937) of 26.1 and a drug sensitivity score (MDA-MB-231 [1]) of 17.3. The drug sensitivity score (BT-549) was 19.6, the drug sensitivity score (HCC1143) was 9.99 and the drug sensitivity score (CAL-148) was 18.1. It also gave a drug sensitivity score (CAL-85-1 [2]) of 16, a drug sensitivity score (MDA-MB-453 [3]) of 20.8 and a drug sensitivity score (DU-4475) of 21.7. It also gave a drug sensitivity score (HDQ-P1 [4]) of 18, a drug sensitivity score (MFM-223) of 20.9 and a drug sensitivity score (MDA-MB-436 [5]) of 20.7. The drug sensitivity score (MDA-MB-468 [6]) was 19.4, the drug sensitivity score (CAL-120 [7]) was 21.3 and the drug sensitivity score (Hs578T [8]) was 18.8. The drug sensitivity score (HCC1599) was 9.96, the drug sensitivity score (BT-474) was 15.2 and the drug sensitivity score (CAL-51) was 18.6. For the same compound, the drug sensitivity score (MDA-MB-231 [9]) was 12.6, the drug sensitivity score (CAL-85-1 [10]) was 9.49 and the drug sensitivity score (MDA-MB-453 [11]) was 0.086. It also gave a drug sensitivity score (HDQ-P1 [12]) of 6, a drug sensitivity score (MDA-MB-436 [13]) of 0 and a drug sensitivity score (MDA-MB-468 [14]) of 0. For the same compound, the drug sensitivity score (CAL-120 [15]) was 0.256 and the drug sensitivity score (Hs578T [16]) was 6.88.

`CCN(CC)CCCC(C)Nc1ccnc2cc(Cl)ccc12` (stereo unspecified) [Chloroquine] gave a drug sensitivity score (SK-BR-3) of 0, a drug sensitivity score (HCC1937) of 0 and a drug sensitivity score (MDA-MB-231 [1]) of 0. For the same compound, the drug sensitivity score (BT-549) was 0, the drug sensitivity score (HCC1143) was 0 and the drug sensitivity score (CAL-148) was 0. For the same compound, the drug sensitivity score (CAL-85-1 [2]) was 0, the drug sensitivity score (MDA-MB-453 [3]) was 0 and the drug sensitivity score (DU-4475) was 0. It also gave a drug sensitivity score (HDQ-P1 [4]) of 0, a drug sensitivity score (MFM-223) of 0 and a drug sensitivity score (MDA-MB-436 [5]) of 0. It also gave a drug sensitivity score (MDA-MB-468 [6]) of 0, a drug sensitivity score (CAL-120 [7]) of 0 and a drug sensitivity score (Hs578T [8]) of 0. For the same compound, the drug sensitivity score (HCC1599) was 0, the drug sensitivity score (BT-474) was 0 and the drug sensitivity score (CAL-51) was 0. It also gave a drug sensitivity score (MDA-MB-231 [9]) of 11.6, a drug sensitivity score (CAL-85-1 [10]) of 7.92 and a drug sensitivity score (MDA-MB-453 [11]) of 9.85. It also gave a drug sensitivity score (HDQ-P1 [12]) of 5.48, a drug sensitivity score (MDA-MB-436 [13]) of 8.96 and a drug sensitivity score (MDA-MB-468 [14]) of 27.3. It also gave a drug sensitivity score (CAL-120 [15]) of 4.62 and a drug sensitivity score (Hs578T [16]) of 8.48.

With `CC(=O)[C@]1(O)Cc2c(O)c3c(c(O)c2[C@@H](O[C@H]2C[C@H](N)[C@H](O)[C@H](C)O2)C1)C(=O)c1ccccc1C3=O` [Idarubicin] the drug sensitivity score (SK-BR-3) was 17.7, the drug sensitivity score (HCC1937) was 21.4 and the drug sensitivity score (MDA-MB-231 [1]) was 11.9. It also gave a drug sensitivity score (BT-549) of 11.5, a drug sensitivity score (HCC1143) of 8.64 and a drug sensitivity score (CAL-148) of 19.7. The drug sensitivity score (CAL-85-1 [2]) was 6.93, the drug sensitivity score (MDA-MB-453 [3]) was 4.55 and the drug sensitivity score (DU-4475) was 18.3. For the same compound, the drug sensitivity score (HDQ-P1 [4]) was 6.33, the drug sensitivity score (MFM-223) was 6 and the drug sensitivity score (MDA-MB-436 [5]) was 9.77. It also gave a drug sensitivity score (MDA-MB-468 [6]) of 14.2, a drug sensitivity score (CAL-120 [7]) of 14.5 and a drug sensitivity score (Hs578T [8]) of 11.4. For the same compound, the drug sensitivity score (HCC1599) was 0.917, the drug sensitivity score (BT-474) was 10.2 and the drug sensitivity score (CAL-51) was 21. For the same compound, the drug sensitivity score (MDA-MB-231 [9]) was 0, the drug sensitivity score (CAL-85-1 [10]) was 8.04 and the drug sensitivity score (MDA-MB-453 [11]) was 0. For the same compound, the drug sensitivity score (HDQ-P1 [12]) was 0, the drug sensitivity score (MDA-MB-436 [13]) was 0 and the drug sensitivity score (MDA-MB-468 [14]) was 10.5. It also gave a drug sensitivity score (CAL-120 [15]) of 0 and a drug sensitivity score (Hs578T [16]) of 0.

`CO[C@@H]1[C@H](N(C)C(=O)c2ccccc2)C[C@H]2O[C@]1(C)n1c3ccccc3c3c4c(c5c6ccccc6n2c5c31)C(=O)NC4` [Midostaurin] gave a drug sensitivity score (SK-BR-3) of 6.46, a drug sensitivity score (HCC1937) of 10 and a drug sensitivity score (MDA-MB-231 [1]) of 9.28. The drug sensitivity score (BT-549) was 9.72, the drug sensitivity score (HCC1143) was 4.83 and the drug sensitivity score (CAL-148) was 0. It also gave a drug sensitivity score (CAL-85-1 [2]) of 3.45, a drug sensitivity score (MDA-MB-453 [3]) of 7.82 and a drug sensitivity score (DU-4475) of 15.8. For the same compound, the drug sensitivity score (HDQ-P1 [4]) was 10.9, the drug sensitivity score (MFM-223) was 4.68 and the drug sensitivity score (MDA-MB-436 [5]) was 8.07. It also gave a drug sensitivity score (MDA-MB-468 [6]) of 9.5, a drug sensitivity score (CAL-120 [7]) of 8.21 and a drug sensitivity score (Hs578T [8]) of 14.9. The drug sensitivity score (HCC1599) was 3.48, the drug sensitivity score (BT-474) was 0 and the drug sensitivity score (CAL-51) was 19.4. For the same compound, the drug sensitivity score (MDA-MB-231 [9]) was 7.87, the drug sensitivity score (CAL-85-1 [10]) was 0 and the drug sensitivity score (MDA-MB-453 [11]) was 0. It also gave a drug sensitivity score (HDQ-P1 [12]) of 1.96, a drug sensitivity score (MDA-MB-436 [13]) of 0 and a drug sensitivity score (MDA-MB-468 [14]) of 17. It also gave a drug sensitivity score (CAL-120 [15]) of 3.96 and a drug sensitivity score (Hs578T [16]) of 11.5.

`C=CCn1c(=O)c2cnc(Nc3ccc(N4CCN(C)CC4)cc3)nc2n1-c1cccc(C(C)(C)O)n1` [MK1775] gave a drug sensitivity score (SK-BR-3) of 20.4, a drug sensitivity score (HCC1937) of 15 and a drug sensitivity score (MDA-MB-231 [1]) of 15. For the same compound, the drug sensitivity score (BT-549) was 13.3, the drug sensitivity score (HCC1143) was 9.62 and the drug sensitivity score (CAL-148) was 18.3. For the same compound, the drug sensitivity score (CAL-85-1 [2]) was 11.1, the drug sensitivity score (MDA-MB-453 [3]) was 15.1 and the drug sensitivity score (DU-4475) was 15. The drug sensitivity score (HDQ-P1 [4]) was 13.6, the drug sensitivity score (MFM-223) was 12.4 and the drug sensitivity score (MDA-MB-436 [5]) was 13.3. The drug sensitivity score (MDA-MB-468 [6]) was 11.5, the drug sensitivity score (CAL-120 [7]) was 16 and the drug sensitivity score (Hs578T [8]) was 14.2. For the same compound, the drug sensitivity score (HCC1599) was 7.82, the drug sensitivity score (BT-474) was 13 and the drug sensitivity score (CAL-51) was 16.2. For the same compound, the drug sensitivity score (MDA-MB-231 [9]) was 19.8, the drug sensitivity score (CAL-85-1 [10]) was 16.5 and the drug sensitivity score (MDA-MB-453 [11]) was 0. The drug sensitivity score (HDQ-P1 [12]) was 9.56, the drug sensitivity score (MDA-MB-436 [13]) was 13.8 and the drug sensitivity score (MDA-MB-468 [14]) was 11.1. The drug sensitivity score (CAL-120 [15]) was 4.54 and the drug sensitivity score (Hs578T [16]) was 9.43.

In the case of `COc1cc(Nc2c(C#N)cnc3cc(OCCCN4CCN(C)CC4)c(OC)cc23)c(Cl)cc1Cl` [Bosutinib], the drug sensitivity score (SK-BR-3) is reported as 7.78, the drug sensitivity score (HCC1937) is reported as 6.37 and the drug sensitivity score (MDA-MB-231 [1]) is reported as 6.93. For the same compound, the drug sensitivity score (BT-549) was 5.28, the drug sensitivity score (HCC1143) was 5.05 and the drug sensitivity score (CAL-148) was 7.34. The drug sensitivity score (CAL-85-1 [2]) was 5.55, the drug sensitivity score (MDA-MB-453 [3]) was 6.37 and the drug sensitivity score (DU-4475) was 2.82. It also gave a drug sensitivity score (HDQ-P1 [4]) of 6.6, a drug sensitivity score (MFM-223) of 4.68 and a drug sensitivity score (MDA-MB-436 [5]) of 4.98. It also gave a drug sensitivity score (MDA-MB-468 [6]) of 5.03, a drug sensitivity score (CAL-120 [7]) of 8.36 and a drug sensitivity score (Hs578T [8]) of 3.1. The drug sensitivity score (HCC1599) was 3.68, the drug sensitivity score (BT-474) was 5.59 and the drug sensitivity score (CAL-51) was 3.35. It also gave a drug sensitivity score (MDA-MB-231 [9]) of 7.99, a drug sensitivity score (CAL-85-1 [10]) of 8.13 and a drug sensitivity score (MDA-MB-453 [11]) of 1.6. It also gave a drug sensitivity score (HDQ-P1 [12]) of 3.06, a drug sensitivity score (MDA-MB-436 [13]) of 2.19 and a drug sensitivity score (MDA-MB-468 [14]) of 5.02. It also gave a drug sensitivity score (CAL-120 [15]) of 0 and a drug sensitivity score (Hs578T [16]) of 3.59.
